From ChEMBL document CHEMBL1649326, “First report of the multidrug resistance gene cfr and the phenicol resistance gene fexA in a Bacillus strain from swine feces” (2010)
In brackets after ≈: the same amount, converted by molar mass.

Legend:
Staphylococcus aureus [1] = assay: Antimicrobial activity against Staphylococcus aureus RN4220 harboring pBS-01multiple resistance gene cfr and phenolic resistance gene fexA obtained from swine feces
Staphylococcus aureus [2] = assay: Antimicrobial activity against Staphylococcus aureus RN4220; format: functional
[3] = (§1) Antimicrobial activity against Bacillus sp. BS-01 expressing multiple resistance gene cfr and […] resistance gene fexA obtained from swine feces; format: functional; conditions: Bacillus sp. BS-01, Feces
Bacillus sp. BS-01 = assay: as §1; format: functional

Compound	MIC (Staphylococcus aureus [1])	MIC (Staphylococcus aureus [2])	MIC [3]	MIC (Bacillus sp. BS-01)
CS(=O)(=O)c1ccc([C@@H](O)[C@@H](CF)NC(=O)C(Cl)Cl)cc1 [FLORFENICOL]	4 mg/L (≈ 11.2 µM)	16 mg/L (≈ 44.7 µM)	32 mg/L (≈ 89.3 µM)	–
CC[C@H]1OC(=O)[C@H](C)[C@@H](O[C@H]2C[C@@](C)(OC)[C@@H](O)[C@H](C)O2)[C@H](C)[C@@H](O[C@@H]2O[C@H](C)C[C@H](N(C)C)[C@H]2O)[C@](C)(O)C[C@@H](C)C(=O)[C@H](C)[C@@H](O)[C@]1(C)O [ERYTHROMYCIN]	0.25 mg/L (≈ 0.341 µM)	> 64 mg/L	> 64 mg/L	–
O=C(O)c1cn(C2CC2)c2cc(N3CCNCC3)c(F)cc2c1=O [CIPROFLOXACIN]	0.5 mg/L (≈ 1.51 µM)	0.5 mg/L (≈ 1.51 µM)	8 mg/L (≈ 24.1 µM)	–
CCC[C@@H]1C[C@@H](C(=O)N[C@@H]([C@H]2O[C@H](SC)[C@H](O)[C@@H](O)[C@H]2O)[C@H](C)Cl)N(C)C1 [CLINDAMYCIN]	< 0.625 mg/L	> 32 mg/L	> 32 mg/L	–
GENTAMICIN	–	0.25 mg/L	–	8 mg/L
CN(C)[C@@H]1C(O)=C(C(N)=O)C(=O)[C@@]2(O)C(O)=C3C(=O)c4c(O)cccc4[C@@](C)(O)[C@H]3C[C@@H]12 [TETRACYCLINE]	1 mg/L (≈ 2.25 µM)	1 mg/L (≈ 2.25 µM)	32 mg/L (≈ 72 µM)	–
C=C[C@]1(C)C[C@@H](OC(=O)CSCCN(CC)CC)[C@]2(C)[C@H](C)CC[C@]3(CCC(=O)[C@H]32)[C@@H](C)[C@@H]1O [TIAMULIN]	< 0.5 mg/L	32 mg/L (≈ 64.8 µM)	256 mg/L (≈ 518 µM)	–
CC(=O)NC[C@H]1CN(c2ccc(N3CCOCC3)c(F)c2)C(=O)O1 [LINEZOLID]	1 mg/L (≈ 2.96 µM)	–	2 mg/L (≈ 5.93 µM)	–
CN[C@H](CC(C)C)C(=O)N[C@H]1C(=O)N[C@@H](CC(N)=O)C(=O)N[C@H]2C(=O)N[C@H]3C(=O)N[C@H](C(=O)N[C@H](C(=O)O)c4cc(O)cc(O)c4-c4cc3ccc4O)[C@H](O)c3ccc(c(Cl)c3)Oc3cc2cc(c3O[C@@H]2O[C@H](CO)[C@@H](O)[C@H](O)[C@H]2O[C@H]2C[C@](C)(N)[C@H](O)[C@H](C)O2)Oc2ccc(cc2Cl)[C@H]1O [VANCOMYCIN]	–	–	0.5 mg/L (≈ 0.345 µM)	–
O=C(N[C@H](CO)[C@H](O)c1ccc([N+](=O)[O-])cc1)C(Cl)Cl [CHLORAMPHENICOL]	4 mg/L (≈ 12.4 µM)	16 mg/L (≈ 49.5 µM)	32 mg/L (≈ 99 µM)	–
